Several values for one entry are separate records, joined by “and”; a condition that tells them apart may be missing. Identical values can stand only once.
How the values were obtained:
[1] = Blood-brain barrier permeability with 3H-CLR01 IV (scintillation counting of blood and brain); type: in vivo, mouse; conditions: for Blood radioactivity levels, % of the injected levels: 0.5 h following IV injection; for Brain radioactivity after double injection compared to one injection: two 11.86-μg/g injections
Description: The following groups of mice were used for CLR01 BBB penetration studies: 3×Tg and the corresponding WT mice at 2-m, 12-m, and 22 - 24-m (hereafter referred to as 22-m) of age. The groups were: 2-m WT, 2-m Tg, 12-m WT, 12-m Tg, 22-m WT, 22-m Tg. Mice were administered ^3H-CLR01 intravenously. Two μCi per gram of mouse body weight, which are equal to 11.86 μg/g of CLR01 in which ^3H-CLR01 made up 10% of the total CLR01, were injected into the jugular vein. Blood and brain were collected at 0.5, 1, 3, 8, 24, or 72 h (not all time points were collected for all groups, see the Results section). For times ≤ 3 h, mice were anesthetized by IP injection of ketamine and xylazine. The mice remained anesthetized following the injection until the specified time point, at which point they were given a lethal dose of pentobarbital. Then, blood was collected via a cardiac puncture, and the brain harvested with or without a perfusion step Pharmacokinetics of CLR01 in vivo. For time points 8–72 h, mice were not anesthetized and ^3H-CLR01 was injected into the tail vein. This change was due to the difficulty of keeping mice anesthetized for longer than 3 h. No differences were observed between mice given anesthesia and jugular vein injections and mice receiving tail vein injections.
Euthanasia procedures were the same as described above. For all mice, one hemisphere of the brain and 100–350 μl of blood were separately digested following instructions from Perkin-Elmer (document: Scintillation Cocktails and Consumables) with 1 ml Solvable (Perkin-Elmer, Waltham, MA), added to Ultima Gold Liquid Scintillation Cocktail (Perkin-Elmer) and read in a Triathler Liquid Scintillation Counter model 425–034, (Hidex, Turku, Finland). Brain permeability percentage was calculated as counts per minute (CPM) per g of brain relative to CPM per ml of blood. The data are an average of values from three mice per genotype/age/time combination.
For CLR01 transport-saturation studies using 5× the CLR01 dose, ^3H-CLR01 was kept at 10% of the total CLR01 mixture and a total of 59.3 μg of CLR01 (10 μCi) per g of mouse body weight was injected IV (22-m WT 5× dose). For CLR01 brain-accumulation studies, two 11.86-μg/g injections were administered at equal time intervals (22-m WT 2× inj). In these experiments, mice were injected at time = 0 and at t = ½ of euthanasia time. For example, in the original, single-injection experiments, a mouse would receive an injection at t = 0 and then be euthanized at t = 1 h. In this experiment, a mouse received one injection at t = 0, a second injection at t = 0.5 h, and then was euthanized at t = 1 h.
In experiments using ^3H-CLR01, urine was collected when possible over the period between injection and euthanasia. […] We could not normalize the radioactivity because the amount of urine in the bladder prior to injection and the volume produced during the experiment could not be calculated.
To correct for the radioactivity associated with blood-borne ^3H-CLR01 in the brain vasculature, we performed both perfusion and subtraction analyses. In perfusion experiments, WT and 3×Tg mice at each of the three ages analyzed (n = 3 per group) were perfused with phosphate buffered saline following euthanasia. Perfusion lasted for either 5 min or until the liver changed color from a red to yellow, whichever was longer. In other experiments, mice were not perfused, but radioactivity associated with 10 μl of blood per g of brain [29, 30] was calculated based on brain weight and blood radioactivity levels and subtracted from brain radioactivity levels. At 1 h post injection, perfusion-corrected brain values were statistically similar to subtraction-corrected brain values (Figure 5). […]

[2] = target: T1, calf intestinal alkaline phosphatase (Bos taurus, UniProt P19111); test: In vitro dephosphorylation by alkaline phosphatase (inorganic phosphate release); type: in vitro ADME; conditions: up to 100 nmol CLR01, 60 min at 60°C, detection limit 5 nmol
T1 construct: purchased Promega, Madison, Wisconsin
T1 sequence (P19111 20-533): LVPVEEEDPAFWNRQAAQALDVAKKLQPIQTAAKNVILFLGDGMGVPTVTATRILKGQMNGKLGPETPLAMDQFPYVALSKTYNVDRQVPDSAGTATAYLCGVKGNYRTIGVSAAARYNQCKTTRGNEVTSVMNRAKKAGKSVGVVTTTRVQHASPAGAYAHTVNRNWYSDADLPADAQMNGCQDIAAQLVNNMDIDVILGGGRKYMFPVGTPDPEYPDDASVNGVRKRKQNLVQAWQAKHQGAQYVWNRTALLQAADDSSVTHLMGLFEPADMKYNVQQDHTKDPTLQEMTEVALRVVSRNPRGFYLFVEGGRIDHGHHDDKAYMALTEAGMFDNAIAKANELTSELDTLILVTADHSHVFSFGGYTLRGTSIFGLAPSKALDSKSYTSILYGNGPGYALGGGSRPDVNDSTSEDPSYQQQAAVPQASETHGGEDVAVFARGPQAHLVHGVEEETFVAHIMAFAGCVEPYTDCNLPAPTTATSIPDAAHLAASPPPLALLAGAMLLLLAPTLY
Description: Potential dephosphorylation of CLR01 was analyzed by incubating 100 nmol CLR01 with 0.08 units of alkaline phosphatase (ALP; calf intestinal alkaline phosphatase, Promega, Madison, Wisconsin) for 60 min at 60°C. One enzymatic unit is defined as the amount of enzyme required for catalyzing the hydrolysis of 1 μmol of p-nitrophenylphosphate per minute. p-Nitrophenylphosphate disodium salt at 5–50 nmol (Fisher, Waltham, Massachusetts) was used for generation of a standard curve. The amount of inorganic phosphate generated was measured spectrophotometrically using an EnzChek Phosphate Assay kit (Life Technologies, Carlsbad, California) according to the manufacturer’s instructions on a DU-640 spectrophotometer (Beckman Coulter, Brea, California) at λ = 360 nm. Baseline values were subtracted from readings and compared to the standard curve resulting from serial ALP reactions to calculate the amount of inorganic phosphate. Similarly, potential dephosphorylation of CLR01 by brain homogenates was measured. For these experiments, one brain hemisphere was homogenized by sonication in the presence of cOmplete protease-inhibitor cocktail (Roche, Penzberg, Germany). Protein concentration was measured using a BCA Protein Assay Kit (Pierce, Rockford, Illinois). […]

[3] = parameters: method as in PMID 23183235; conditions: human plasma; cited from earlier work
[4] = parameters: method as in Lopes et al., submitted; conditions: SC pumps; ref Lopes et al., submitted; cited from earlier work
[5] = test system: cytochrome P450 system; parameters: method as in PMID 23183235; conditions: up to 10-μM, compared to rifampicin positive control; cited from earlier work
[6] = test system: 3×Tg mouse model of AD; parameters: method as in PMID 23183235; conditions: cited from earlier work

O=P(O)(O)Oc1c2c(c(OP(=O)(O)O)c3c1C1CC3c3cc4c(cc31)C1CC4c3ccccc31)C1CC2c2cc3c(cc21)C1CC3c2ccccc21 [CLR01]
Brain radioactivity levels over time ([1]; 0.5 - 72 h post-injection, IV): did not change significantly up to 72 h post-injection
Brain penetration, % of blood ([1]; 1× CLR01 dose, 1 h, 22-m old WT mice): 0.86 ± 0.30%
Brain penetration, % of blood ([1]; 5× CLR01 dose (59.3 μg/g), 1 h, 22-m old WT mice): 0.97 ± 0.28%
Absolute amount of radioactivity in the brain relative to 1× dose ([1]; 5× CLR01 dose, 22-m old WT mice, on average): 5 times
Blood radioactivity levels, % of the injected levels ([1]; 12-m old 3×Tg mice): 40 ± 6%
Blood radioactivity levels, % of the injected levels ([1]; 12-m old WT mice): 39 ± 13%
Brain radioactivity after double injection compared to one injection ([1]; 1 h, 22-m old WT mice): 3.3 ×
Brain-radioactivity levels as a percentage of blood-radioactivity levels (CPM/g)/(CPM/ml) ([1]; 1 h following IV injection, 2-m old 3×Tg mice): 3.09 ± 0.55%
Brain-radioactivity levels as a percentage of blood-radioactivity levels (CPM/g)/(CPM/ml) ([1]; 1 h following IV injection, 2-m old WT mice): 2.68 ± 0.31%
Brain-radioactivity levels as a percentage of blood-radioactivity levels (CPM/g)/(CPM/ml) ([1]; 1 h following IV injection, 12-m old 3×Tg mice): 1.43 ± 0.17%
Brain-radioactivity levels as a percentage of blood-radioactivity levels (CPM/g)/(CPM/ml) ([1]; 1 h following IV injection, 12-m old WT mice): 2.11 ± 0.69%
Brain-radioactivity levels as a percentage of blood-radioactivity levels (CPM/g)/(CPM/ml) ([1]; 1 h following IV injection, 24-m old 3×Tg mice): 1.45 ± 0.28%
Brain-radioactivity levels as a percentage of blood-radioactivity levels (CPM/g)/(CPM/ml) ([1]; 1 h following IV injection, 24-m old WT mice): 0.86 ± 0.17%
Brain-radioactivity levels as a percentage of blood-radioactivity levels, over all groups ([1]; 1 h following IV injection, depending on age and genotype (WT versus 3×Tg)): 0.86–3.09% and 1 - 3% and ~ 2%
Brain radioactivity after double injection compared to one injection ([1]; 3 h, 22-m old WT mice): 1.6 ×
Brain radioactivity after double injection compared to one injection ([1]; 8 h, 22-m old WT mice): 1.9 ×
Radioactivity observed at 0.5 h remaining in the blood ([1]; after 8 h, IV): 5 - 10%
Brain CLR01 radioactivity levels per g of brain, most group × time combinations ([1]; single IV injection 11.86 μg/g): 10,000 - 20,000 CPM/g
Route of excretion (urine radioactivity, qualitative) ([1]; urine collected between injection and euthanasia): excreted through the urine
Inorganic phosphate released on incubation with ALP [2]: undetectable levels of inorganic phosphate
Stability [3]: 100%
Administered CLR01 in the blood at steady-state [4]: 0.7%
Activation of the cytochrome P450 system [5]: Minimal activation
Effect on AD-like brain pathology ([6]; SC, 40 μg/kg/day): significant decrease in amyloid plaque burden and hyperphosphorylated tau
Effect on APP processing ([6]; treated AD mice): did not affect processing of amyloid β-protein precursor (APP)

From article PMC3996151, “Safety and pharmacological characterization of the molecular tweezer CLR01 – a broad-spectrum inhibitor of amyloid proteins’ toxicity” (BMC Pharmacology & Toxicology, 2014)
